The source of these data is patent US20070098781A1, “Modified release compositions for DPP-IV inhibitors” (priority 2005, published 2007).

The nature of data set [1]: Pharmacoscintigraphic evaluation of regional drug absorption: plasma pharmacokinetics after site-specific gastrointestinal delivery (Enterion capsule). The class given is in vivo, human. The conditions noted are these: 400 mg, healthy volunteers; for AUC / Cmax: both sexes, human, plasma, oral; for AUC: read-out: Mean (SD) AUC; for Cmax: read-out: Mean (SD) Cmax. The procedure:
(§1) A pharmacoscintigraphic evaluation of the regional drug absorption and pharmacodynamics of (2S)-1-{[2-(5-Methyl-2-phenyl-oxazol-4-yl)-ethylamino]-acetyl}-pyrrolidine-2-carbonitrile mesylate in up to 9 healthy male or female volunteers following administration to four different sites of the gastrointestinal tract: stomach, proximal small bowel, ileum and ascending colon was carried out. The study was conducted as an open label, 4-way cross-over design consisting of 4 study periods of approximately 2-3 days duration, each separated by washout period of at least 4 days.
(§2) During each study period, 400 mg (2S)-1-{[2-(5-Methyl-2-phenyl-oxazol-4-yl)-ethylamino]-acetyl}-pyrrolidine-2-carbonitrile mesylate was delivered to the appropriate gastrointestinal target using Enterion™ capsule technology. The capsule was administered with water containing a radiolabelled marker (^99mTc-DTPA) which was used to define the gastrointestinal anatomy and the movement of the capsule was followed by means of an ^111In marker within the device. The location of both radiolabels was monitored on images obtained from a dual wavelength gamma camera. Capsule activation and thereby drug release was achieved by applying an external signal. The release was planned to occur within 5 hours of the administration of a standardised low calorie meal.
(§3) The pharmacokinetics of (2S)-1-{[2-(5-Methyl-2-phenyl-oxazol-4-yl)-ethylamino]-acetyl}-pyrrolidine-2-carbonitrile mesylate were determined after each administration by monitoring plasma concentrations of parent drug and metabolites. The pharmacodynamic response was assessed by measuring the concentrations of circulating markers (glucose, insulin, glucagon and GLP-1) for up to 4 hours following an oral glucose tolerance test (OGTT), which itself was carried out 2 hours after release of the drug substance. A control OGTT response (i.e. no drug treatment) was established for each subject before the first treatment period began.

For data set [2], the system named is circulating markers (glucose, insulin, glucagon and GLP-1). Kind of data set: Pharmacodynamic response after site-specific delivery: circulating markers following an oral glucose tolerance test (OGTT). Format: in vivo, human. The conditions noted are these: healthy volunteers, 400 mg; for Mean Delta Blood Glucose AUEC / Mean Plasma GLP-1 AUEC / Mean Plasma Insulin AUEC: OGTT 2 h after release, baseline corrected. The protocol: as §1, §2, §3

Data set [3] can be described thus: Triple-cannulated cynomolgus monkey model: plasma PK after site-specific delivery. The settings on record: 5 mg/kg; for AUC: plasma, 5 mg/kg in solution. The class given is in vivo. The procedure:
(§4) A study was conducted in an in-house cynomolgus monkey model, in which permanent cannulae had been surgically attached to various sections of their intestine. This animal model allows compounds to be delivered to precise regions of the intestine in the intact animal in vivo. A single dose cross-over study was performed in three animals, where 5 mg/kg of (2S)-1-{[1,1-Dimethyl-3-(4-pyridin-3-yl-imidazol-1-yl)-propylamino]-acetyl}-pyrrolidine-2-carbonitrile was delivered (with sufficient wash out periods in between), in solution by gavage to the stomach or via the cannulae to the duodenum, the jejunum-ileum junction or the top of the ascending colon, respectively. An oral glucose challenge was performed in each animal for each treatment 2 hours post-dose of compound (plus a pre-study control). Full plasma PK and DPPIV inhibition profiles were obtained for each treatment. Blood glucose profiles were measured for 3 hours post-glucose challenge.

The subject of the next data set is plasma DPPIV. Description: Triple-cannulated cynomolgus monkey model: plasma DPPIV inhibition after site-specific delivery. Format: in vivo. The conditions noted are these: for Mean Plasma DPPIV Inhibition: 5 mg/kg in solution. The procedure: as §4
The test system of another data set is blood glucose. Kind of data set: Triple-cannulated cynomolgus monkey model: blood glucose after oral glucose challenge. The class given is in vivo. The settings on record: 5 mg/kg; for Mean Delta Glucose AUEC: oral glucose challenge 2 hours post-dose. The procedure: as §4
Setting [4] is: delivery to the ileum-jejenum junction or colon, versus other sites.
[5] abbreviates: dosing region ascending colon (cannula).
Setting [6] is: dosing region duodenum (cannula).
[7] abbreviates: dosing region ileum-jejunum junction (cannula).

Where two headings read alike, the source gives them in different places.

As for `CS(=O)(=O)O.Cc1oc(-c2ccccc2)nc1CCNCC(=O)N1CCC[C@H]1C#N` [(2S)-1-{[2-(5-Methyl-2-phenyl-oxazol-4-yl)-ethylamino]-acetyl}-pyrrolidine-2-carbonitrile mesylate], the exposure (AUC) was determined as 3540 ng·h/mL in data set [1] (dosing region colon), 14200 ng·h/mL in data set [1] (dosing region duodenum), 12300 ng·h/mL in data set [1] (dosing region ileum) and 12200 ng·h/mL in data set [1] (dosing region stomach). Moreover, the Cmax in data set [1] (dosing region colon) amounted to 736 ng/mL; in data set [1] (dosing region duodenum), 7580 ng/mL; in data set [1] (dosing region ileum) it was 5420 ng/mL; in data set [1] (dosing region stomach) it was 5570 ng/mL. Moreover, the “absorption and elimination rate (plasma profiles)” value in data set [1] (all routes of administration except for the colon) is “broadly similar”. For the same molecule, in data set [1] (colon delivery), the “period for which plasma concentrations were sustained” value is reported as 6-8 hours post dose. For the same molecule, the plasma concentrations result in data set [1] (colon delivery versus other routes) is reported as “substantially lower”. Moreover, the Average exposure entry in data set [1] (delivery to the proximal small bowel (duodenum) versus other sites) is listed as “slighter greater”. Besides, the “Mean Delta Blood Glucose AUEC” value in data set [2] (dosing region PSB) is listed as 130 % Control; in data set [2] (dosing region colon), 83 % Control; in data set [2] (dosing region ileum), 47 % Control; in data set [2] (dosing region stomach), 55 % Control. The “Mean Plasma GLP-1 AUEC” value in data set [2] (dosing region PSB) amounted to 180 % Control; in data set [2] (dosing region colon), 87 % Control; in data set [2] (dosing region ileum), 340 % Control; in data set [2] (dosing region stomach) it was 151 % Control. In addition, the “Mean Plasma Insulin AUEC” value worked out at 160 % Control in data set [2] (dosing region PSB), 101 % Control in data set [2] (dosing region colon), 47 % Control in data set [2] (dosing region ileum) and 65 % Control in data set [2] (dosing region stomach). In addition, in data set [2] (both stomach and ileal delivery), the “Mean blood glucose area under the effect curve (AUEC) following an OGTT vs control” value was “substantially decreased”. Also, the “active glucagon-like peptide 1 (primary mechanistic biomarker)” value in data set [2] (only ileal delivery) is listed as “sustained systematic increase”.

Turning to `CC(C)(CCn1cnc(-c2cccnc2)c1)NCC(=O)N1CCC[C@H]1C#N` [(2S)-1-{[1,1-Dimethyl-3-(4-pyridin-3-yl-imidazol-1-yl)-propylamino]-acetyl}-pyrrolidine-2-carbonitrile], in data set [3] (setting [4]), the “systemic exposure to the compound” value is “lowest systemic exposure”. In addition, the area under the curve (AUC) was 354 ng·h/mL in data set [3] (setting [5]); 3890 ng·h/mL in data set [3] (setting [6]); 1350 ng·h/mL in data set [3] (setting [7]); 2280 ng·h/mL in data set [3] (po, dosing region stomach (gavage)). In addition, the “Mean Plasma DPPIV Inhibition” value in the data set on plasma DPPIV (setting [5]) is recorded as 45 % baseline; with plasma DPPIV (setting [6]), 60 % baseline; with plasma DPPIV (setting [7]), 45 % baseline; in the data set on plasma DPPIV (dosing region stomach (gavage)), 65 % baseline. The “average plasma DPPIV inhibition” value in the data set with plasma DPPIV (5 mg/kg, delivery to the ileum-jejenum junction or colon, versus other sites) is “lowest average plasma DPPIV inhibition”. Also, the effect on glucose entry in the data set on blood glucose (setting [4]) was “highest effect on glucose”. In the data set on blood glucose (delivery to the stomach, ileum or the ascending colon), the “blood glucose compared to control” value is “reduction in blood glucose”. Moreover, the “Mean Delta Glucose AUEC” value was 52 % Control in the data set with blood glucose (dosing region ascending colon), 116 % Control in the data set on blood glucose (dosing region duodenum), 76 % Control with blood glucose (dosing region ileum-jejunum junction) and 88 % Control in the data set with blood glucose (dosing region stomach).

The AUC is concentration integrated over time. A word on the Cmax: it is the highest concentration seen after dosing.
